Experimental findings from publication PMC12668310, “High‐Throughput Synthesis and Screening of a Cyanimide Library Identifies Selective Inhibitors of ISG15‐Specific Protease mUSP18” (Angewandte Chemie (International Ed. in English), 2025) are described below.

One assay concerns 12 Ub(‐like) proteases. The assay can be described thus: High-throughput screening, whole panel of twelve enzymes. The assay is classed as biochemical. The note with it: crude mixture, 1.25 µM; enzymes other than mUSP18. The procedure:
Since the in‐plate synthesis was conducted in 1536‐well Echo plates, the compounds could readily be transferred from these plates into 1536‐well assay plates using acoustic liquid dispensing (Figure 2a) and subjected to HTS. We screened the whole 7536 compound library against a panel of twelve enzymes, including three DUBs from the UCH family, two DUBs from the OTU family, five DUBs from the USP family, plus ISG15 protease USP18, and SUMO protease SENP1. Each compound was tested at a single dose of 1.25 µM, assuming full conversion (10 mM in DMSO of the formed products) during the in‐plate synthesis, using the fluorogenic assay described above. […] The compounds are sorted by the amine building blocks (BB1‐16), and within each BB, sorted by carboxylic acid (CA1‐471), thereby providing a comprehensive and systematic overview of the overall inhibition by each BB and CA combination. Some interesting patterns can be obtained from this map. […] Indeed, BB10 is the privileged scaffold for UCHL1 as it originates from UCHL1 inhibitor 5 (Figure 1). […]
(§1) The percentage inhibition was calculated for each well using the […]
(§2) Where FIx is the fluorescence intensity of each well, FIpos is the average fluorescence intensity of the positive (NEM) control wells, and FIneg is the average fluorescence intensity of the negative (DMSO) control wells.

Assay [1] addresses T1, mUSP18 (Mus musculus, UniProt Q9WTV6).
T1 construct: (46-368); His-tag (N); made in house
T1 sequence (Q9WTV6 46-368): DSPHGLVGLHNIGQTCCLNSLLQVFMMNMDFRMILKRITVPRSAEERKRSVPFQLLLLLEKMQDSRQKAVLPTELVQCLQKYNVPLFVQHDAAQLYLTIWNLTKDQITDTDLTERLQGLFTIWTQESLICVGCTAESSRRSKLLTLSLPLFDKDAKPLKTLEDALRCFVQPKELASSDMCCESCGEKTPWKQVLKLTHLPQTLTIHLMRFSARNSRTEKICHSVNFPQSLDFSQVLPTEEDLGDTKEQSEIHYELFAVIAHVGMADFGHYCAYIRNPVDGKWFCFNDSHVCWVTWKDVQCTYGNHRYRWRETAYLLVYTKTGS
The assay can be described thus: IC50 determination, fluorogenic ISG15CT-Rho-morpholine activity assay. Type of assay: biochemical, murine.

For assay [2], the target named is T1, mUSP18. The experiment in a line: High-throughput screening, ISG15ct-RhoMP, single dose 1.25 µM. The assay is classed as biochemical, murine. Particulars: crude in-plate synthesized compound, 1.25 µM assuming full conversion; read-out: %inhibition mUSP18.
For assay [3], the target named is T2, USP30 (Homo sapiens, UniProt Q70CQ3).
T2 sequence (Q70CQ3 57-517): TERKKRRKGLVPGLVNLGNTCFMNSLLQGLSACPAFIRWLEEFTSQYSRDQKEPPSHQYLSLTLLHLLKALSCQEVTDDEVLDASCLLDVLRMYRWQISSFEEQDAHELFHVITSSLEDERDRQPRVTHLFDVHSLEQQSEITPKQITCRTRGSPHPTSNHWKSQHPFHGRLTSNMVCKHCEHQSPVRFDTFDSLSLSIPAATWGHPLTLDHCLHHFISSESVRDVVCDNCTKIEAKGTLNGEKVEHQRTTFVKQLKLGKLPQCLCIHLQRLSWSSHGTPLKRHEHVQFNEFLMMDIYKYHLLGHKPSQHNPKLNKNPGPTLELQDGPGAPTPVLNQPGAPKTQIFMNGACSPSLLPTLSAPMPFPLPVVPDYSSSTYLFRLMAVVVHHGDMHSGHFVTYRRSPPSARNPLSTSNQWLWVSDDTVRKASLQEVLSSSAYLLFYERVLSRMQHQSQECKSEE
The experiment in a line: biochemical.
Method: This panel included five proteases from the USP family, two from the UCH family, and one OTU. The IC50 values were determined in a well‐established biochemical activity assay using the fluorogenic substrate Ub‐Rho‐morpholine.^[ [33] ^] For USP18, which is unreactive to Ub but specific for ISG15, we used the ISG15CT‐Rho‐morpholine (consisting of the C‐terminal domain of ISG15) substrate to monitor its activity (see Supporting Information for preparation of this substrate).
(§3) Enzymes were pre-incubated with a concentration series of the compounds for 30 minutes at
(§4) room temperature, before addition of the substrate and direct read-out by fluorescence
(§5) intensity. Data is presented as mean ± SD, n=3.
room temperature, followed by the addition of substrate and direct read-out by fluorescence
IC50 and kinact/KI determination
(§6) The assays were performed at room temperature in “nonbinding surface flat bottom low flange”
(§7) TrisꞏHCl, 100 mM NaCl, pH 7.6, 2.0 mM cysteine, 1 mg/mL 3-[(3-cholamidopropyl)-
(§8) dimethylammonio]propanesulfonic acid (CHAPS), and 0.5 mg/mL γ-globulins from bovine
(§9) blood (BGG). […] The compounds were dissolved in 10
(§10) mM DMSO stocks, and appropriate volumes were transferred to the empty plates using a
(§11) Labcyte Echo550 acoustic dispenser. A DMSO back-fill was performed to obtain equal volumes of DMSO (400 μL) in each well. N-ethylmaleimide (NEM, 10 mM) was used a positive
(§12) steps were performed on a Biotek MultiflowFX liquid dispenser. A 10 μL portion of buffer was added and the plate was vigorously shaken for 20s. Next, 5 μL of recombinant enzyme (4x final concentration) was added followed by incubation for 1h. A 5 μL portion of the substrate
(§13) (Ub-RhoMP[2] for all DUBs, ISG15ct-RhoMP (vide supra) for USP18 and Z-FR-AMC [Bachem,
(§14) RhoMP, 10 µM for Z-FR-AMC), and the increase in fluorescence over time was recorded using
(§15) excitation 360 nm, emission 450 nm for AMC). The initial enzyme velocities were calculated
(§16) from the slopes, normalized to the positive and negative controls, and plotted against the
(§17) inhibitor concentrations using the built-in equation “[inhibitor] vs response − variable slope
(§18) (four parameters), least-squares fit” with constraints “Bottom = 0” and “Top = 100” in GraphPad
(§19) Prism 7 software to obtain the IC50 values.
(§20) All data fitting and calculations were done using GraphPad Prism 7 software.

For a further assay, the target named is T3, USP7 (Homo sapiens, UniProt Q93009).
T3 construct: (1-1102); GST (cleaved yes); made in house
The assay can be described thus: IC50 determination, fluorogenic Ub-Rho-morpholine activity assay. Type of assay: biochemical. Particulars: after 30 min incubation; purified compound.

The target of assay [4] is T2, USP30. The experiment in a line: High-throughput screening, Ub-RhoMP, single dose 1.25 µM. Type of assay: biochemical. Set-up: USP30 CD (57-517); purchased Ubiquigent 64-0057-050. The note with it: crude in-plate synthesized compound, 1.25 µM assuming full conversion. The procedure:
Since the in‐plate synthesis was conducted in 1536‐well Echo plates, the compounds could readily be transferred from these plates into 1536‐well assay plates using acoustic liquid dispensing (Figure 2a) and subjected to HTS. We screened the whole 7536 compound library against a panel of twelve enzymes, including three DUBs from the UCH family, two DUBs from the OTU family, five DUBs from the USP family, plus ISG15 protease USP18, and SUMO protease SENP1. Each compound was tested at a single dose of 1.25 µM, assuming full conversion (10 mM in DMSO of the formed products) during the in‐plate synthesis, using the fluorogenic assay described above. […] The compounds are sorted by the amine building blocks (BB1‐16), and within each BB, sorted by carboxylic acid (CA1‐471), thereby providing a comprehensive and systematic overview of the overall inhibition by each BB and CA combination. Some interesting patterns can be obtained from this map. […] Indeed, BB10 is the privileged scaffold for UCHL1 as it originates from UCHL1 inhibitor 5 (Figure 1). […] On the other hand, OTUD1 and USP32 show a much higher hit rate, and this is even more pronounced for USP30 and ISG15 protease mUSP18, each showing many active compounds distributed over several BB's.
Purified recombinant enzymes used in this study
High-throughput screening
The screens were performed at room temperature in “flat bottom, non-treated, black […]
µM. The compounds (10 nL each) were transferred from the 1 mM daughter plates to the […]
Four wells containing DMSO
(10 nL) and four wells containing NEM (10 mM final concentration) were used in each plate […]
solution (1.33x final concentration) was added to each well, followed by incubation for 30 min.
Next, 2 µL of a substrate solution (4x final concentration) was added to each well (Ub-RhoMP[2]
After 1h or 2h incubation the
as §1, §2

Another assay concerns the target T4, USP32 (Homo sapiens, UniProt Q8NFA0).
T4 construct: (1-1604); His-tag (N); made in house
The experiment in a line: IC50 determination, fluorogenic Ub-Rho-morpholine activity assay. The assay is classed as biochemical. Particulars: after 30 min incubation; purified compound.

The next assay has as its target T5, OTUB2 (Homo sapiens, UniProt Q96DC9).
T5 sequence (Q96DC9 1-234): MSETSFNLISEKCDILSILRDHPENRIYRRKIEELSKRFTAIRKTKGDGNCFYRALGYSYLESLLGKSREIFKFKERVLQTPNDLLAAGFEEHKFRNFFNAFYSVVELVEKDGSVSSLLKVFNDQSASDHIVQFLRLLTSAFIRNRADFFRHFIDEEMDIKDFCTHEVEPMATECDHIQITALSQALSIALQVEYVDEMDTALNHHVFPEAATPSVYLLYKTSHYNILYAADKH
The assay can be described thus: biochemical.

The target in a further assay is T6, UCHL1 (Homo sapiens, UniProt P09936).
T6 construct: (1-223); made in house
T6 sequence (P09936 1-223): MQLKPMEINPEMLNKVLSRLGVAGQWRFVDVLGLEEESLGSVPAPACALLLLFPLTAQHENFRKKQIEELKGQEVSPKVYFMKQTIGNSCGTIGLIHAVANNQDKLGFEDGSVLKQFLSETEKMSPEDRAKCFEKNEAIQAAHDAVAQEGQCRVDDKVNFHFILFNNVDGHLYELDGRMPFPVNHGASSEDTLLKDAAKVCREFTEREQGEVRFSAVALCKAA
The experiment in a line: IC50 determination, fluorogenic Ub-Rho-morpholine activity assay. Type of assay: biochemical. Particulars: after 30 min incubation; purified compound.

In another assay the target is T7, UCHL3 (Homo sapiens, UniProt P15374).
T7 construct: (1-230); made in house
T7 sequence (P15374 1-230): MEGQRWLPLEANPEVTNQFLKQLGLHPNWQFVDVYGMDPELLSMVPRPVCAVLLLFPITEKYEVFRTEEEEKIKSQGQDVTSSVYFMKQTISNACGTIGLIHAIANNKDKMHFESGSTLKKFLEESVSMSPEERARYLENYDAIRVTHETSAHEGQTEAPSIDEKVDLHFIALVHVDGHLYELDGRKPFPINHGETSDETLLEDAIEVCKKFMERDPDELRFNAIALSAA
The assay is described as above. Type of assay: biochemical. Particulars: after 30 min incubation; purified compound.

Another assay addresses USP16 (Homo sapiens, UniProt Q9Y5T5). The assay can be described thus: biochemical.

T3 sequence (Q93009 whole entry): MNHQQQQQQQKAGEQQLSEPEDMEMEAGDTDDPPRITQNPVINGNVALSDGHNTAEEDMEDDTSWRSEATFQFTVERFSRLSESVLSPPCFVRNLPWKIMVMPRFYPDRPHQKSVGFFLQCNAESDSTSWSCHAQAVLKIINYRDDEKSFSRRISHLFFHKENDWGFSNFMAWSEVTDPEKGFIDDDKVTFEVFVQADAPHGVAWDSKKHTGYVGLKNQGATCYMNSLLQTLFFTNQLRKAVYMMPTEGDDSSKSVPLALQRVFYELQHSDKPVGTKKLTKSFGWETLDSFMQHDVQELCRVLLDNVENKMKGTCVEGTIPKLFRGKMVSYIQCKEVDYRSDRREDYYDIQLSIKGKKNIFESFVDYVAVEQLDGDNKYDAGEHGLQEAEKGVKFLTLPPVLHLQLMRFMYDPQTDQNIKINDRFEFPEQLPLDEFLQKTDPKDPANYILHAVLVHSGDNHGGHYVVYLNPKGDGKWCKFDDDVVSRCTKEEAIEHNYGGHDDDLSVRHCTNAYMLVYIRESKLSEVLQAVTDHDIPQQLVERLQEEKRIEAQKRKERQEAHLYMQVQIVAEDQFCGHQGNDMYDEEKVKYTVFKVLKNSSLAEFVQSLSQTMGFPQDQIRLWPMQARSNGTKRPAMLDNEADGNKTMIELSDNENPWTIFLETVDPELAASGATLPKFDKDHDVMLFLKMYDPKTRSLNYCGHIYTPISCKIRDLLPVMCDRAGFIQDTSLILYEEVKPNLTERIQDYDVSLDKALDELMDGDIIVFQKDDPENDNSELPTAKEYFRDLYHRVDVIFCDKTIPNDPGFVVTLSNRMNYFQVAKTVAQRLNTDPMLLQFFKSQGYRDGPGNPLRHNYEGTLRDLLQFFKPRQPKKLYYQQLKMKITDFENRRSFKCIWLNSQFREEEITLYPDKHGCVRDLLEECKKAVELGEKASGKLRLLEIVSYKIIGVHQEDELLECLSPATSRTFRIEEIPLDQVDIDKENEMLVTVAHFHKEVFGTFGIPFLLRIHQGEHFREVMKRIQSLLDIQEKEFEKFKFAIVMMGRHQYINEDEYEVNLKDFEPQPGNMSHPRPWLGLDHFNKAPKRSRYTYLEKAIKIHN
Chain of USP16 (Q9Y5T5 22-823): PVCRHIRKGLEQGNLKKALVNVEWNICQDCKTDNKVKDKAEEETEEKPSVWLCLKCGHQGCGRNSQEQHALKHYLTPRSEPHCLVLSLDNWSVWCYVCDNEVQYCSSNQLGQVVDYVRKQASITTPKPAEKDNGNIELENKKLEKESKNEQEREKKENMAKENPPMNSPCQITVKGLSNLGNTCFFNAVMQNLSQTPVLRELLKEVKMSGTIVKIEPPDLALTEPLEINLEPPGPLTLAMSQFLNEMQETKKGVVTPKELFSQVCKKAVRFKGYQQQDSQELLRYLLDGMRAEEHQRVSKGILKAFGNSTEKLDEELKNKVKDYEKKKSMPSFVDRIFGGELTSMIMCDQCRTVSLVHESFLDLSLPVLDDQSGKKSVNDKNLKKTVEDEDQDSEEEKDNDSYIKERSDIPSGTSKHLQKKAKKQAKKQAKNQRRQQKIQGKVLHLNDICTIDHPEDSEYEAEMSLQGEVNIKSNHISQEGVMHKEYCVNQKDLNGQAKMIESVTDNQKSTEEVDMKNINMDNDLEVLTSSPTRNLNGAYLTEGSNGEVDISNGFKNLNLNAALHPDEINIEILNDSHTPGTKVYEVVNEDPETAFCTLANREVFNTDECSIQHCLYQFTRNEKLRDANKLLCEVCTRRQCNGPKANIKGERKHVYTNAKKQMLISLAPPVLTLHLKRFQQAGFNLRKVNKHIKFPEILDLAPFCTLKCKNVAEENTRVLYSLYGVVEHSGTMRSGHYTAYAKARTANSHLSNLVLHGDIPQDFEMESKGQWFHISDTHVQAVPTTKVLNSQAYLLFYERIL
T4 sequence (Q8NFA0 whole entry): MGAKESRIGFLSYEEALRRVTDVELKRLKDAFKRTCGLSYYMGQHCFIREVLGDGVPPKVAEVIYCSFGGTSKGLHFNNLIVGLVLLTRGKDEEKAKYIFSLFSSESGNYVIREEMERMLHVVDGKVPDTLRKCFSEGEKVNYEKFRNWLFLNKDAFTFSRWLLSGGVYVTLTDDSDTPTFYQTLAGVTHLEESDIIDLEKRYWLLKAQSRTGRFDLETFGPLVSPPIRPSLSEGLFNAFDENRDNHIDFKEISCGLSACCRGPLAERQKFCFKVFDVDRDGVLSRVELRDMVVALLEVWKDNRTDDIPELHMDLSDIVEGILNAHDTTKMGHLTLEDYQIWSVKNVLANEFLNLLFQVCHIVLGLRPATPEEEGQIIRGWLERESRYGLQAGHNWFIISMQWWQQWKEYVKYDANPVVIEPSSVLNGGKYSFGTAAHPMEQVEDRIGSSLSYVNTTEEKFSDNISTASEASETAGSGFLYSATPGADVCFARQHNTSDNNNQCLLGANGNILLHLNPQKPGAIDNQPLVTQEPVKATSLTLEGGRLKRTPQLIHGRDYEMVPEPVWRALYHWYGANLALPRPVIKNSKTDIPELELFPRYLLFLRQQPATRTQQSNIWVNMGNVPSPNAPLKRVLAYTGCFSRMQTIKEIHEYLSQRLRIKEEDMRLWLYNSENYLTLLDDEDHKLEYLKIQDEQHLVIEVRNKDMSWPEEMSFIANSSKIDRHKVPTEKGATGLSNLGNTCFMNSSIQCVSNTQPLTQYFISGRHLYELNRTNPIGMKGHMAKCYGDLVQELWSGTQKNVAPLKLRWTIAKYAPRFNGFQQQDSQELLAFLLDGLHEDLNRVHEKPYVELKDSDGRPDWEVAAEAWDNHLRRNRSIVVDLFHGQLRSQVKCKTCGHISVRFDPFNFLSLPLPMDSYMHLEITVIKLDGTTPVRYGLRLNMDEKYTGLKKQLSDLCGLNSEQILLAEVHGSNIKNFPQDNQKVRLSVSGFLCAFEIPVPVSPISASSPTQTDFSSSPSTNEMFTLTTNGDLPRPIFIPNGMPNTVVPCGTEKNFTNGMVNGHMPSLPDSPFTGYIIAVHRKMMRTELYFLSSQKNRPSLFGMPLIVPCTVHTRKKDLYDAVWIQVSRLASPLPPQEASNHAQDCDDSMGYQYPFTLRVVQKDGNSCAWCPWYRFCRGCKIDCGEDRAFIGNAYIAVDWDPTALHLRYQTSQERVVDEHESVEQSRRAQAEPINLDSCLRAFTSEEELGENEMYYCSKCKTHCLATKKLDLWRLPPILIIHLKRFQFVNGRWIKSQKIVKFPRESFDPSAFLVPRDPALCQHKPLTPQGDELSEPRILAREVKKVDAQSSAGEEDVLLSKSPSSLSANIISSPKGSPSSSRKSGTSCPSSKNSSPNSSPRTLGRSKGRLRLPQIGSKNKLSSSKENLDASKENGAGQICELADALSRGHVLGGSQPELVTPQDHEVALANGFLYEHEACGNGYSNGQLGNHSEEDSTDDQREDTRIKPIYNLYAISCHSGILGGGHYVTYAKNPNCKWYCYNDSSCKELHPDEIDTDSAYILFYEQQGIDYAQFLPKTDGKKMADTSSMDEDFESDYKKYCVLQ
Method for OTUB2: (§21) This panel included five proteases from the USP family, two from the UCH family, and one OTU. The IC50 values were determined in a well‐established biochemical activity assay using the fluorogenic substrate Ub‐Rho‐morpholine.^[ [33] ^]
as §3, §4, §5
(§22) USP16 Full length N-terminal His-tag Q9Y5T5 In-house, [Mons, 2 nM
IC50 and kinact/KI determination
as §6, §7, §8, §9, §10, §11
steps were performed on a Biotek MultiflowFX liquid dispenser. […]
as §14
excitation 360 nm, emission 450 nm for AMC). The initial enzyme velocities were calculated […]
Method for USP16: as §21, §3, §4, §5, §22
IC50 and kinact/KI determination
as §6, §7, §8, §9, §10, §11, §12, §13, §14, §15, §16, §17, §18, §19, §20

As for `N#CN1C[C@H]2C[C@H](NC(=O)CCC3CCCCC3)C[C@H]2C1` [BB07CA48], the “inhibition of all other enzymes tested” value in the assay on 12 Ub(‐like) proteases was “negligible inhibition”. For the same compound, on mUSP18 [1] (pure (re-synthesized) compound, mean ± SD n = 3), 0.24 ± 0.0099 µM corresponded to half-maximal inhibition (IC50). For the same compound, the inhibition at 1.25 µM on mUSP18 [2] amounted to 75%.
For the compound `N#CN1CC[C@@H](NC(=O)c2cc(-c3cccc(Cl)c3)no2)C1` [Compound 1], the IC50 was 0.043 µM against USP30 [3]; 42 µM against USP7; 0.079 µM on mUSP18 [1] (after 30 min incubation, purified compound, ISG15CT-Rho-morpholine substrate); 0.53 µM on USP32; more than 200 µM on OTUB2; 54 µM on UCHL1. The IC50 against UCHL3 stood at 229 µM; at USP16, 5.1 µM. For the same compound, on USP30 [4], the “%inhibition USP30” value is on record as approximately 90%. Besides, the inhibition at 1.25 µM on mUSP18 [2] is approximately 90%.
